Experimental data: article PMC3914206

Legend:
panel of 442 kinases [1] = biological target: T1, panel of 442 kinases (Homo sapiens, UniProt Q96PY6); format: binding; details: Compound Concentration 10 µM
T1 construct: purchased KINOMEscan
T1 sequence (Q96PY6 1-1258): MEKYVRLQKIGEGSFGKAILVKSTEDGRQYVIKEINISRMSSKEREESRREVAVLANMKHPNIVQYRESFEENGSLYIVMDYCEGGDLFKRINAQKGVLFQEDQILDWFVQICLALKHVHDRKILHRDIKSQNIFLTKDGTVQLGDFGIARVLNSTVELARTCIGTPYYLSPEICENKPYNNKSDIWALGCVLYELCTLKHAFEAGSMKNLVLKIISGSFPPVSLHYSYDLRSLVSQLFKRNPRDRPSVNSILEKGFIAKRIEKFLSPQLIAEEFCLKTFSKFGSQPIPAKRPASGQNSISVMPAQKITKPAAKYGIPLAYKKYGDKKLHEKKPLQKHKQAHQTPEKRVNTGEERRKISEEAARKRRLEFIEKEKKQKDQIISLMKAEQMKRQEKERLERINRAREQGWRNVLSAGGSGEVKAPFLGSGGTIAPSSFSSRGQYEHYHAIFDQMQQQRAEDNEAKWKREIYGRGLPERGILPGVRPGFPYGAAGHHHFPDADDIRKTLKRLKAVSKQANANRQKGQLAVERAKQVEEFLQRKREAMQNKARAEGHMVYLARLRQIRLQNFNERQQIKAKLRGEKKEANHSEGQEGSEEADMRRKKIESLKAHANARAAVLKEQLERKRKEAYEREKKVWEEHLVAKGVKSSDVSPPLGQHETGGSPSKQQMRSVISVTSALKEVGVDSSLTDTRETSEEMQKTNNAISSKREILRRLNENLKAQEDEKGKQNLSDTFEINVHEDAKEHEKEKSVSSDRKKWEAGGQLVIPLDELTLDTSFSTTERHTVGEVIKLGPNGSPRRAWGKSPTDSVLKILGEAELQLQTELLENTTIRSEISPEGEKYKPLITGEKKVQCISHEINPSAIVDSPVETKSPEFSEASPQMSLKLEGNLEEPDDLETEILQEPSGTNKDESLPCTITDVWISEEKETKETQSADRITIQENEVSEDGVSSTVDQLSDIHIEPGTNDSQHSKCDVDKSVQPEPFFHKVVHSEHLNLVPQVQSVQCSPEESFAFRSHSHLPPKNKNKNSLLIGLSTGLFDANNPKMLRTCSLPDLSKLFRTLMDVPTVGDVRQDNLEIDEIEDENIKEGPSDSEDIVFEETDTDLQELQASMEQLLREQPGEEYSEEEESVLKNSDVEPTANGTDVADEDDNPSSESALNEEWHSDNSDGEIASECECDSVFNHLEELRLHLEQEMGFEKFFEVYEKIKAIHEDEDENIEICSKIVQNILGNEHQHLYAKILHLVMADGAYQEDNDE
Source text: (§1) We assessed the selectivity of members of this scaffold using the KINOMEscan methodology across a near comprehensive panel of 442 kinases [[18,27]].

panel of 442 kinases [2] = biological target: T2, panel of 442 kinases (Homo sapiens, UniProt Q86Y07); format: binding; details: kinase VRK2; compound concentration 10 µM
T2 construct: purchased KINOMEscan
T2 sequence (Q86Y07 whole entry): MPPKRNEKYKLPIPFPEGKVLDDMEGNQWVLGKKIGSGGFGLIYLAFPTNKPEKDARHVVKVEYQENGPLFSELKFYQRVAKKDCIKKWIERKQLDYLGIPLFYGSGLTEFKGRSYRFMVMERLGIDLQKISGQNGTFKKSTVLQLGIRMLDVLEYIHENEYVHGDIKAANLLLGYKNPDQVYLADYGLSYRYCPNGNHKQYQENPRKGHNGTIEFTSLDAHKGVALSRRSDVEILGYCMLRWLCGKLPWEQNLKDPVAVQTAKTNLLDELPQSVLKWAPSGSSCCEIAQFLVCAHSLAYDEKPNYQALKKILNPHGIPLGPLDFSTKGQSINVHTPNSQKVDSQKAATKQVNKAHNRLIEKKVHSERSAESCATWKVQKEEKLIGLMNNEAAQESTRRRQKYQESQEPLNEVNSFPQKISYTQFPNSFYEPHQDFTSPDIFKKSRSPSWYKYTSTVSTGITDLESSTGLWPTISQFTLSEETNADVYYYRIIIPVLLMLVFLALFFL
Source text: as §1

Structure (SMILES)	KINOMEscan: NEK1 (panel of 442 kinases [1])	% Ctrl, VRK2 (panel of 442 kinases [2])
COc1cc(C(=O)N2CCC(N3CCN(C)CC3)CC2)ccc1Nc1ncc2c(n1)N(C)c1ccccc1C(=O)N2C [15 (LRRK2-IN-1)]	83	99 % Ctrl
CCOc1cc(C(=O)N2CCC(N3CCN(C)CC3)CC2)ccc1Nc1ncc2c(n1)N(C1CCCC1)c1ccccc1C(=O)N2C [Compound 26]	84	82 % Ctrl
COc1cc(C(=O)N2CCC(N3CCN(C)CC3)CC2)ccc1Nc1ncc2c(n1)N1CCc3cccc(c31)C(=O)N2C [Compound 24]	63	100 % Ctrl
COc1cc(C(=O)N2CCC(N3CCN(C)CC3)CC2)ccc1Nc1ncc2c(n1)N(C1CCCC1)c1ccccc1C(=O)N2C [Compound 25, 11-cyclopentyl-2-((2-methoxy-4-(4-(4-methylpiperazin-1-yl)piperidine-1-carbonyl)phenyl)amino)-5-methyl-5H-benzo[e]pyrimido[5,4-b][1,4]diazepin-6(11H)-one]	72	100 % Ctrl
